Eight compounds from ChEMBL document CHEMBL3425423, “Hydroxy tricyclic 1,5-naphthyridinone oxabicyclooctane-linked novel bacterial topoisomerase inhibitors as broad-spectrum antibacterial agents-SAR of RHS moiety (Part-3)” (Bioorg Med Chem Lett, 2015) can be followed below.

Values after ≈ are worked out from the molar mass of the structure shown. Some results are limits rather than exact numbers.

The IC50 is the concentration needed to halve the response being measured. A low value points to greater potency. Usually half-life stands for the time needed for the level to fall by half in the phase considered. A higher half-life goes with slow decline. Broadly, the bioavailability is the share of a dose that reaches the circulation, judged against a reference dose that is usually intravenous. Lower therefore signals poor availability.

Series [1] relates to Acinetobacter baumannii. Briefly: Antibacterial activity against Acinetobacter baumannii IID876. Format: functional.
The test system of series [2] is Staphylococcus aureus. Kind of series: Ratio of MIC for quinolone-resistant Staphylococcus aureus MS5935 to MIC for quinolone-sensitive Staphylococcus aureus. Format: functional.
In series [3] the test system is Moraxella catarrhalis. Briefly: Antibacterial activity against Moraxella catarrhalis ATCC 25238. The series is classed as functional.
The subject of series [4] is Enterococcus faecalis. Kind of series: Antibacterial activity against Enterococcus faecalis ATCC 29212. Format: functional.
The test system of series [5] is Staphylococcus aureus. Kind of series: Antibacterial activity against Staphylococcus aureus Smith. Format: functional. To be noted: Staphylococcus aureus, Smith; read-out: MIC.
The test system of series [6] is Enterococcus faecium. Kind of series: Antibacterial activity against VanA-type vancomycin-resistant Enterococcus faecium A2373. The series is classed as functional.
In series [7] the test system is Streptococcus pneumoniae. Briefly: Antibacterial activity against Streptococcus pneumoniae IID554. The series is classed as functional. To be noted: Streptococcus pneumoniae, IID554; read-out: MIC.
Series [8] deals with Pseudomonas aeruginosa. Kind of series: Antibacterial activity against Pseudomonas aeruginosa PAO1. The series is classed as functional.
Series [9] relates to Haemophilus influenzae. Kind of series: Antibacterial activity against Haemophilus influenzae ATCC 49247. The series is classed as functional.
Series [10] deals with Escherichia coli. Briefly: Antibacterial activity against Escherichia coli ATCC 25922. Format: functional.
Series [11] concerns the target T1, Voltage-gated inwardly rectifying potassium channel KCNH2 (Homo sapiens, UniProt Q12809). Kind of series: Inhibition of human ERG expressed in CHO cells measured over 5 mins by patch clamp assay. Background: The patch-clamp technique gives a direct electrical read-out from membranes.
The target in series [12] is T1, Voltage-gated inwardly rectifying potassium channel KCNH2. Kind of series: Displacement of MK499 from human ERG.
The nature of series [13]: Half life in C57BL/6 mouse at 1 mg/kg, iv and 2 mg/kg, po. Format: ADME, organism-based. To be noted: in vivo.
The nature of series [14]: Volume of distribution at steady state in C57BL/6 mouse at 1 mg/kg, iv and 2 mg/kg, po. Format: ADME, organism-based. To be noted: in vivo, read-out: Vdss.
Series [15] is described as follows: Plasma clearance in C57BL/6 mouse at 1 mg/kg, iv and 2 mg/kg, po. The series is classed as ADME, organism-based.
Series [16] has as its system Mus musculus. Kind of series: Dose normalized AUC in C57BL/6 mouse at 1 mg/kg, iv and 2 mg/kg, po. To be noted: in vivo. The series is classed as ADME, organism-based.
The subject of series [17] is Staphylococcus aureus. Briefly: Antibacterial activity against Staphylococcus aureus Smith infected in iv dosed CD1 mouse administered at 0.5 hrs post infection. The series is classed as functional.
Series [18] in a line: Oral bioavailability in C57BL/6 mouse at 2 mg/kg. Format: ADME, organism-based. To be noted: in vivo.
Series [19] relates to Staphylococcus aureus. Briefly: Antibacterial activity against Staphylococcus aureus Smith infected in po dosed CD1 mouse administered at 0.5 hrs post infection. The series is classed as functional.
The mark [20] stands for this setting: Acinetobacter baumannii, IID876, read-out: MIC.
The mark [21] stands for this setting: Moraxella catarrhalis, ATCC 25238, read-out: MIC.
[22] abbreviates: Enterococcus faecalis, ATCC 29212, read-out: MIC.
Where [23] appears, read: Enterococcus faecium, A2373, read-out: MIC.
Where [24] appears, read: Pseudomonas aeruginosa, PAO1, read-out: MIC.
Where [25] appears, read: Haemophilus influenzae, ATCC 49247, read-out: MIC.
[26] abbreviates: Escherichia coli, ATCC 25922, read-out: MIC.

T1 sequence (Q12809 whole entry): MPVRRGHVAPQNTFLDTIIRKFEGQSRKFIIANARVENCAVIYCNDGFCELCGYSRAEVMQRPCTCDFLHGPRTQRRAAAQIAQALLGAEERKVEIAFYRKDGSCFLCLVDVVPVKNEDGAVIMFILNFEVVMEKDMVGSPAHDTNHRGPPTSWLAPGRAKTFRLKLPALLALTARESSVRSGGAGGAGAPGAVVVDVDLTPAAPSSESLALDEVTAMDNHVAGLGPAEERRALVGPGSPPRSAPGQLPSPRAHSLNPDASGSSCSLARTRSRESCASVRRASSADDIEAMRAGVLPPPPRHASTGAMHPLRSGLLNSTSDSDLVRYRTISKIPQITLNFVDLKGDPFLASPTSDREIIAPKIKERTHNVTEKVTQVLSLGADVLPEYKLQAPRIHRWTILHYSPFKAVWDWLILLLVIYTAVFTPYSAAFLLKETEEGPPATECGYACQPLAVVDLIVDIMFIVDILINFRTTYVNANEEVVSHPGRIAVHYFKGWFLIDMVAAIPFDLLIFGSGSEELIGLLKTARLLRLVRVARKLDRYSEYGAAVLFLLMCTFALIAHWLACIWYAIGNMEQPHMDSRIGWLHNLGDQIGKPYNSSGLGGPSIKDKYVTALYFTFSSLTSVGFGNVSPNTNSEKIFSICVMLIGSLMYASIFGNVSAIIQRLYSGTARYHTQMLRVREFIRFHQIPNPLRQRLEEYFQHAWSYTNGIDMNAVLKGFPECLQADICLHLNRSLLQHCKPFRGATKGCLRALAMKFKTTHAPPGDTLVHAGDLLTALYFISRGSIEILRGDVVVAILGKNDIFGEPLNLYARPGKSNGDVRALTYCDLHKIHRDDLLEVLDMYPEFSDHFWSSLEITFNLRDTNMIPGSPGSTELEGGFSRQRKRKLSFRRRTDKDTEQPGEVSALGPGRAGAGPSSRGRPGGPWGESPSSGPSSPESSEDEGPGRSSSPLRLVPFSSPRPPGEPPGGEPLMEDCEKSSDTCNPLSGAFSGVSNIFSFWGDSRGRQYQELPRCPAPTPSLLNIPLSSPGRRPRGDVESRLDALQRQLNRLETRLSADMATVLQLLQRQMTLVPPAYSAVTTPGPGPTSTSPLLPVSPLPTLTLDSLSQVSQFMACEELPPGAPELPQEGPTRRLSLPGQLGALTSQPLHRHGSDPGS

Consider `Nc1cc2c(nc1CNC13CCC(C[C@]4(O)Cn5c(=O)ccc6ncc(F)c4c65)(CC1)OC3)NC(=O)CO2`, for which the MIC in series [1] (setting [20]) was determined as 32 µg/mL (≈ 61.2 µM); in series [3] (setting [21]), 4 µg/mL (≈ 7.65 µM); in [4] (setting [22]) it was 32 µg/mL (≈ 61.2 µM); in [5], 8 µg/mL (≈ 15.3 µM); in series [6] (setting [23]) it was 32 µg/mL (≈ 61.2 µM); in series [7], 32 µg/mL (≈ 61.2 µM). In addition, the MIC in [8] (setting [24]), in series [9] (setting [25]) and in series [10] (setting [26]) was 32 µg/mL (≈ 61.2 µM) in each case. Also, the Ratio in series [2] is listed as less than 4.
`O=c1ccc2ncc(F)c3c2n1C[C@@]3(O)CC12CCC(NCc3ccc4c(n3)NCCN4)(CC1)CO2`: the MIC in series [1] (setting [20]) was determined as 32 µg/mL (≈ 65 µM); in [3] (setting [21]), 32 µg/mL (≈ 65 µM); in series [4] (setting [22]), 32 µg/mL (≈ 65 µM); in [5], 8 µg/mL (≈ 16.2 µM); in series [6] (setting [23]) it was 32 µg/mL (≈ 65 µM); in series [7], 16 µg/mL (≈ 32.5 µM). Besides, the MIC in series [8] (setting [24]) and in series [10] (setting [26]) was 32 µg/mL (≈ 65 µM) each time. The half-maximal inhibitory concentration (IC50) in series [11] and in series [12] was more than 60 µM throughout. Further, the Ratio in series [2] is on record as less than 4.
In the case of `O=C1COc2cc(OC(=O)c3ccccc3)c(CNC34CCC(C[C@]5(O)Cn6c(=O)ccc7ncc(F)c5c76)(CC3)OC4)nc2N1`, the MIC in [1] (setting [20]) amounted to 32 µg/mL (≈ 51 µM); in series [3] (setting [21]) it was 32 µg/mL (≈ 51 µM); in series [4] (setting [22]), 32 µg/mL (≈ 51 µM); in [5], 8 µg/mL (≈ 12.7 µM); in series [6] (setting [23]), 32 µg/mL (≈ 51 µM); in series [7] it was 32 µg/mL (≈ 51 µM). In addition, the MIC in series [8] (setting [24]), in series [9] (setting [25]) and in series [10] (setting [26]) was 32 µg/mL (≈ 51 µM) throughout. The IC50 in [11] came out at 30.5 µM. Also, the Ratio in [2] was less than 4.
For the compound `CCc1cc2c(nc1CNC13CCC(C[C@]4(O)Cn5c(=O)ccc6ncc(F)c4c65)(CC1)OC3)NC(=O)CO2`, the MIC in series [1] (setting [20]) turned out to be 1 µg/mL (≈ 1.87 µM); in series [3] (setting [21]) it was 1 µg/mL (≈ 1.87 µM); in [4] (setting [22]), 32 µg/mL (≈ 59.7 µM); in series [5], 8 µg/mL (≈ 14.9 µM); in series [6] (setting [23]), 32 µg/mL (≈ 59.7 µM); in [7], 32 µg/mL (≈ 59.7 µM). Besides, the MIC in [8] (setting [24]) is 32 µg/mL (≈ 59.7 µM); in [9] (setting [25]), 16 µg/mL (≈ 29.9 µM); in series [10] (setting [26]) it was 16 µg/mL (≈ 29.9 µM). In addition, the 50% inhibitory concentration (IC50) in series [11] and in series [12] was more than 60 µM throughout. Besides, in series [2], the Ratio is less than 4.
`O=c1ccc2ncc(F)c3c2n1C[C@@]3(O)CC12CCC(NCc3ccc4c(n3)OCCN4)(CC1)CO2`: the MIC in series [1] (setting [20]) came to 32 µg/mL (≈ 64.8 µM); in [3] (setting [21]), 32 µg/mL (≈ 64.8 µM); in [4] (setting [22]), 32 µg/mL (≈ 64.8 µM); in series [5], 8 µg/mL (≈ 16.2 µM); in [6] (setting [23]) it was 32 µg/mL (≈ 64.8 µM); in series [7] it was 8 µg/mL (≈ 16.2 µM). Also, the MIC in series [8] (setting [24]), in series [9] (setting [25]) and in [10] (setting [26]) was 32 µg/mL (≈ 64.8 µM) in each case. Further, the Ratio in [2] was less than 4.
`CN1CCOc2ccc(CNC34CCC(C[C@]5(O)Cn6c(=O)ccc7ncc(F)c5c76)(CC3)OC4)nc21`: the MIC in series [1] (setting [20]) turned out to be 32 µg/mL (≈ 63 µM); in series [4] (setting [22]), 32 µg/mL (≈ 63 µM); in [5], 4 µg/mL (≈ 7.88 µM); in [6] (setting [23]) it was 32 µg/mL (≈ 63 µM); in series [7] it was 8 µg/mL (≈ 15.8 µM); in series [8] (setting [24]) it was 32 µg/mL (≈ 63 µM). Besides, the MIC in series [10] (setting [26]) stood at 32 µg/mL (≈ 63 µM). Further, the IC50 in series [11] and in series [12] was more than 60 µM each time. Also, the Ratio in series [2] was less than 4.
For the compound `O=C1COc2cc(Cl)c(CNC34CCC(C[C@]5(O)Cn6c(=O)ccc7ncc(F)c5c76)(CC3)OC4)nc2N1`, the half-life in series [13] was 3.5 h. The MIC worked out at 2 µg/mL (≈ 3.69 µM) in series [1] (setting [20]); 8 µg/mL (≈ 14.8 µM) in series [4] (setting [22]); 0.25 µg/mL (≈ 0.461 µM) in series [5]; 16 µg/mL (≈ 29.5 µM) in [6] (setting [23]); 2 µg/mL (≈ 3.69 µM) in series [7]; 16 µg/mL (≈ 29.5 µM) in series [8] (setting [24]). Also, the MIC in series [10] (setting [26]) is 8 µg/mL (≈ 14.8 µM). Besides, in series [14], the Vd amounted to 7 L/kg. In addition, in series [15], the clearance was 38 mL/min/kg. For the same compound, the half-inhibitory concentration (IC50) in series [11] turned out to be 126 µM; in [12], 27.7 µM. The compound further returned an AUC/dose in series [16] of 0.7 µM·h/mg/kg. Moreover, the ED90 worked out at 24 mg/kg in series [17] and 29 mg/kg in series [19]. In addition, the bioavailability in [18] worked out at 51%. For the same compound, the Ratio in series [2] is listed as less than 4.
Regarding `CC1COc2cc(CNC34CCC(C[C@]5(O)Cn6c(=O)ccc7ncc(F)c5c76)(CC3)OC4)ncc2O1` (stereo in doubt; 20), the MIC in series [1] was 16 µg/mL (≈ 31.5 µM); in series [3] it was 2 µg/mL (≈ 3.93 µM); in series [4], 8 µg/mL (≈ 15.7 µM); in [5], 1 µg/mL (≈ 1.97 µM); in series [6], 32 µg/mL (≈ 62.9 µM); in series [7], 2 µg/mL (≈ 3.93 µM). Besides, the MIC in series [8] is 32 µg/mL (≈ 62.9 µM); in series [9] it was 16 µg/mL (≈ 31.5 µM); in [10], 32 µg/mL (≈ 62.9 µM). The half-maximal inhibitory concentration (IC50) in series [11] and in series [12] was more than 60 µM in each case.
